Test results published in the NIST ThermoML archive (doi:10.1007/s10765-010-0860-3).

What was measured:
[1] = 101 kPa, Liquid; for viscosity: Capillary tube (Ostwald / Ubbelohde) method; for mass density: Pycnometric method
[2] = xn = mol fraction of the nth substance listed; conditions: 101 kPa, Liquid; for viscosity: Capillary tube (Ostwald / Ubbelohde) method; for mass density: Pycnometric method

CC1COC(=O)O1 (configuration not stated) [4-methyl-1,3-dioxolan-2-one]
[1]
Conditions | mass density [kg/m3] | viscosity [mPa·s]
288.15 K | 1208.67 | 3.086
298.15 K | 1197.58 | 2.5
308.15 K | 1187.16 | 2.073

CC1COC(=O)O1 (configuration not stated) [4-methyl-1,3-dioxolan-2-one] + CC(=O)CC(C)=O
[2], x1 = 1
Conditions | mass density [kg/m3] | viscosity [mPa·s]
288.15 K | 1208.67 | 3.086
298.15 K | 1197.58 | 2.5
308.15 K | 1187.16 | 2.073

C1CCOC1 [tetrahydrofuran] + CC1COC(=O)O1
[2], x2 = 0
Conditions | mass density [kg/m3] | viscosity [mPa·s]
288.15 K | 892.93 | 0.508
298.15 K | 881.96 | 0.462
308.15 K | 870.85 | 0.426

CC(=O)CC(C)=O [2,4-pentanedione]
[1]
Conditions | mass density [kg/m3] | viscosity [mPa·s]
288.15 K | 980.34 | 0.741
298.15 K | 972.18 | 0.67
308.15 K | 963.46 | 0.609

C1CCOC1 [tetrahydrofuran]
[1]
Conditions | mass density [kg/m3] | viscosity [mPa·s]
288.15 K | 892.93 | 0.508
298.15 K | 881.96 | 0.462
308.15 K | 870.85 | 0.426

C1COCCO1 [1,4-dioxane]
[1]
Conditions | mass density [kg/m3] | viscosity [mPa·s]
288.15 K | 1039.1 | 1.44
298.15 K | 1027.92 | 1.185
308.15 K | 1016.55 | 1.029

C1COCCO1 [1,4-dioxane] + CC1COC(=O)O1
[2], x2 = 0
Conditions | mass density [kg/m3] | viscosity [mPa·s]
288.15 K | 1039.1 | 1.44
298.15 K | 1027.92 | 1.185
308.15 K | 1016.55 | 1.029
